Consider nine compounds from EP4752145A1, “DIAMINOCYCLOPENTYL SUBSTITUTED HETEROARYL DERIVATIVES, USE THEREOF AND PREPARATION METHOD THEREFOR” (Tuojie Biotech (Shanghai) Co., Ltd., priority 2023, dated 2025).

Series [1] is described as follows: Stability test in hepatocytes (metabolic clearance rate). The format is in vitro ADME. As to conditions: cryopreserved hepatocytes, mouse hepatocytes, 0.5 × 10^6 cells/mL, up to 120 min. How it is done: • 1) The test compounds and the control drug verapamil powder were dissolved in DMSO to prepare high-concentration stock solutions. Before use, the stock solutions were diluted with DMSO to prepare 100 µM working solutions. The final concentrations of the test compounds and verapamil were 1 µM. • 2) A tube of cryopreserved hepatocytes was taken. It was ensured that the hepatocytes were still in a low-temperature frozen state before thawing. The hepatocytes were quickly placed in a 37 °C water bath, gently shaken until all ice crystals were dispersed, sprayed with 70% ethanol, and then transferred to a biosafety cabinet. • 3) The contents of small tubes of hepatocytes from different species were poured into a centrifuge tube containing 50 mL of thawing culture medium and centrifuged at 100 g for 10 min. After centrifugation, the thawing culture medium was pipetted off, and a sufficient amount of incubation culture medium was added to obtain a cell suspension with a cell density of about 1.0 × 10^6 cells/mL. • 4) Hepatocytes were counted using Cellometer Vision, and the viable cell density was determined. The viability of hepatocytes must be greater than 75%. The hepatocyte suspension was diluted with the incubation culture medium to a viable cell density of 0.5 × 10^6 cells/mL. • 5) 198 µL of the viable cell suspension was transferred to a 96-well deep-well plate, and the deep-well plate was placed on a vortexer and pre-heated in an incubator for 10 min. In the experiment, the incubation was performed in duplicate. • 6) 2 µL of the 100 µM test compound or verapamil solution was added to each well to start a reaction, and the deep-well plate was placed back on the vortexer in the incubator. • 7) The samples were incubated. At 0 min, 15 min, 30 min, 60 min, 90 min, and 120 min, 25 µL of the suspension was taken, and 150 µL of acetonitrile containing an internal standard was added to stop the reaction. After 10 min of vortexing, the mixture was centrifuged at 3220 g at 4 °C for 45 min. […] After thorough mixing, the mixture was analyzed by UPLC-MS/MS.
All data calculations were performed through Microsoft Excel software. The peak areas were determined through an extracted ion chromatogram. Through linear fitting of the natural logarithm of the parent drug […] percentage versus time, the in vitro half-life (T1/2) of the parent drug was determined.
The in vitro half-life (T1/2) was calculated through the slope: In vitro T1/2 = 0.693/k [formula]
The in vitro clearance rate (in µL/min/10^6 cells) was calculated using the following formula: In vitro CLint = kV/N, [formula] • where V = the incubation volume per well (0.2 mL); • N = the number of cells per well (0.1 × 10^6 cells). […]

The target of the next series is PCSK9 (biotinylated) (Homo sapiens, UniProt Q8NBP7). In words: Binding of compounds to PCSK9 by SPR (BIAcore S200, SA chip). As to conditions: for Kd: SPR, immobilized biotinylated PCSK9, test compounds diluted 3-fold from 10 µM. How it is done:
Table 1. Main experimental materials and instruments
• 1) Protein: PCSK9 (biotinylated) (Acro). The protein was dissolved in water to 200 µg/mL, and the solution was stored at -80 °C. • 2) Chip: SA chip. • 3) Running buffer: 1 × HBSP + 4% DMSO + 0.1 mM CaCl2.
• 1) The chip was pre-warmed to room temperature. • 2) The required buffer was prepared and filtered through a 0.22 µm filter membrane. • 3) The chip was loaded, and parameters were written to the chip. • 4) The PCSK9 protein was diluted to 50 µg/mL in PBS. • 5) An immobilization program was set on the BIAcore S200 instrument. • 6) The immobilization program was run. • 7) The final immobilization response value was 8000 RU, and the maximum response value was 49.4 RU.
1) The compounds were serially diluted 3-fold in the running buffer. The reference compound was diluted 3-fold from 0.4 µM. The test compounds were diluted 3-fold from 10 µM. 2) A dissolution correction buffer was prepared according to the table below: Table 2. Dissolution correction buffer
3) The "LMW multi kinetics" program of the instrument was set as a running program for compound testing. • a) The association time was set at 100 s, and the dissociation time was set at 300 s. 4) The compound testing program was run.
1) Rmax = (MWanalyte/MWligand) × RL × Sm [formula] When affinity fitting was used to fit a curve, the response value of the highest concentration should be close to the fitted Rmax value for an optimal result. 2) Solvent correction and compound concentration gradients were checked. 3) The baseline, binding, and positive compound results in the test report were checked. 4) A suitable fitting method was selected according to the actual association to fit a curve. 5) Whether the fitting result met the data quality assessment criteria of the instrument was checked. Table 3. The binding of compounds of the present disclosure to PCSK9 (KD)

The subject of series [2] is LDLR protein level of HepG2 cells. The experiment in a line: Effect on LDLR level of HepG2 cells stimulated with PCSK9 D374Y (human LDLR ELISA). Conditions: 75 µM compound; for LDLR up-regulation level" (% control): 4 nM PCSK9 D374Y, 48 h, mean of three duplicate wells; for LDLR protein level result relative to reference compound 1: fold of the result of reference compound 1. In kind it is cell-based. As for the experimental part:
HepG2 cells were seeded in a 96-well plate at 30,000 cells/well. The next day, 4 nM PCSK9 D374Y was added to each well to stimulate cells, and the cells were treated with a test compound at the same concentration. Three duplicate wells were set for each sample. The cells were cultured at 37 °C with 5% carbon dioxide for 48 h. The cells were washed twice with PBS, and the supernatant was discarded. The cells were then placed on ice and treated with an RIPA lysis buffer containing protease and phosphatase inhibitors at 50 µL/well. The cell culture plate was frozen overnight in a -80 °C freezer, thawed, then lysed on ice for 30 min, and then centrifuged at a low temperature for 15 min. The cell lysate was diluted 20-fold, and an ELISA was performed. A sample or a reference standard was added to a coated well plate at 50 µL/well, and the plate was incubated at room temperature for 2 h. The plate was washed 4 times with a washing buffer by aspiration, and a human LDLR conjugated antibody was added at 200 µL/well. The plate was incubated at room temperature for 2 h. The washing step was repeated, and a substrate solution was added at 200 µL/well. After 30 min, a stop solution was added at 50 µL/well, and the OD was measured at 450 nm. After the LDLR concentration in the sample wells was calculated according to a standard curve, the LDLR increase rate was calculated using the formula (sample value - mean of control wells) / mean of control wells. Data were processed using GraphPad Prism 8. Table 6. The effects of reference compound 1 and example compounds at a concentration of 75 µM on the LDLR protein level of HepG2 cells

The nature of series [3]: In vivo pharmacokinetic experiment in mice. Conditions: oral, 10 mg/kg, fold of reference compound 1.
Description: C57BL6J mice were used as test animals. […] Reference compound 1 and the example compound were both administered at a dose of 10 mg/kg. Procedure: Mice were intragastrically dosed with reference compound 1 and the example compound. At 0.25 h, 0.5 h, 1 h, 2 h, 4 h, 6 h, 8 h, and 24 h post-dose, blood samples (about 0.03 mL) were collected via peripheral venipuncture, placed into test tubes containing EDTA-K2, and centrifuged at around 4 °C at 4000 g per minute for 5 min to separate plasma, and the plasma was stored at -75 °C.
Determination of the content of the test compound in mouse plasma after the compound (at different concentrations) was orally administered: 10 µL of the mouse plasma collected at each time point post-dose was vortexed with 5 µL of a blank solution and 200 µL of a solution of dexamethasone (internal standard) in acetonitrile for 30 s. The mixture was centrifuged for 15 min (3900 rpm), and 12 µL of the supernatant was taken for LC/MS/MS analysis.
Another series has as its system Mouse hepatocytes. The experiment in a line: Metabolite testing in mouse hepatocytes (parent drug remaining). In kind it is in vitro ADME, Mice. Conditions: mouse hepatocytes (ICR/CD-1, male), 10 µM. As for the experimental part: The objective of this experiment was to identify possible metabolites of a test compound in hepatocytes of different species and speculate about its possible metabolic pathway. The test concentration of the test compound was 10 µM.
Mouse hepatocytes were preserved in liquid nitrogen.
The test compound and the control drug verapamil powder were dissolved in DMSO to prepare high-concentration stock solutions. Before use, the stock solutions were diluted with DMSO to prepare 2 mM working solutions. The final concentrations of the test compound and verapamil were 10 µM.
• 1) Before use, the hepatocyte thawing solution and the incubation solution were placed in a 37 °C water bath and pre-heated for at least 15 min. • 2) A tube of cryopreserved hepatocytes was taken. […] After centrifugation, the thawing culture medium was pipetted off, and a sufficient amount of incubation culture medium was added to obtain a cell suspension with a cell density of about 1.5 × 10^6 cells/mL. • 4) Hepatocytes were counted using Cellometer Vision, and the viable cell density was determined. […]
• 1) 1 µL of the 2 mM test compound solution was pipetted into a 24-well incubation plate, and 199 µL of the hepatocyte suspension was then added to start a reaction. […] 60 µL of the supernatant was well mixed with 60 µL of purified water, and the mixture was then analyzed by UHPLC-MS/MS. […]

Another series in a line: in vivo. Conditions: male, C57BL6J, mouse, plasma, po, 10 mg/kg.

Chain of PCSK9 (biotinylated) (Q8NBP7 153-692): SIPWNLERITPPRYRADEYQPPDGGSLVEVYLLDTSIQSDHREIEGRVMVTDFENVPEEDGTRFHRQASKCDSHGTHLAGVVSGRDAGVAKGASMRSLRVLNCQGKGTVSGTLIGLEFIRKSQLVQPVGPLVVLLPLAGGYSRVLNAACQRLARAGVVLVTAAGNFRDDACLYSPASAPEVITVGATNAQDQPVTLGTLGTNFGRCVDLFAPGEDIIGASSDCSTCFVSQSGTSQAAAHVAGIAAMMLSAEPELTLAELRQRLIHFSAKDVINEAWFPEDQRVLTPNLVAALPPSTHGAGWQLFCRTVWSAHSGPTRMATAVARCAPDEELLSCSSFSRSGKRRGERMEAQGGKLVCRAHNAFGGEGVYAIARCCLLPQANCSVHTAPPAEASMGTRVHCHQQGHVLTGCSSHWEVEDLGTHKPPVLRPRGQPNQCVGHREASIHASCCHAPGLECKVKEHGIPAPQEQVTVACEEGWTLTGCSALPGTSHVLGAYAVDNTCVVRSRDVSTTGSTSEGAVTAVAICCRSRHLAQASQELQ

In turn, `O=c1ccccn1-c1ccc(N[C@H]2CC[C@H](Nc3ncc4c(n3)CCC4)C2)nc1` [Example 1, 1-(6-{[(1S,3S)-3-(6,7-Dihydro-5H-cyclopenta[1,2-d]pyrimidin-2-ylamino)cyclopentyl]amino}pyridin-3-yl)-1,2-dihydropyridin-2-one] gave a hepatocyte CLint at 1 µM in series [1] of 13.2 µL/min/1e6 cells. This compound also gave a dissociation constant (Kd) at PCSK9 (biotinylated) of 26.3 nM.

The compound `O=c1ccccn1-c1ccc(N[C@H]2CC[C@H](Nc3ncc4c(n3)C(F)(F)CC4)C2)nc1` [Example 2, 1-(6-{[(1S,3S)-3-[(7,7-Difluoro-6,7-dihydro-5H-cyclopenta[1,2-d]pyrimidin-2-yl)amino]cyclopentyl]amino}pyridin-3-yl)-1,2-dihydropyridin-2-one] registered a hepatocyte CLint at 1 µM in series [1] of 21 µL/min/1e6 cells. The Kd on PCSK9 (biotinylated) is 68.7 nM.

As to `O=c1ccccn1-c1ccc(N[C@H]2CC[C@H](Nc3ncc4c(n3)OCCO4)C2)nc1` [Example 3, 1-(6-{[(1S,3S)-3-(6,7-Dihydro[1,4]dioxino[3,2-d]pyrimidin-2-ylamino)cyclopentyl]amino}pyridin-3-yl)-1,2-dihydropyridin-2-one], the “LDLR up-regulation level" (% control)” value in series [2] amounted to 160 % control. In series [1], this compound gave an intrinsic clearance (hepatocyte CLint) at 1 µM below 0.1 µL/min/1e6 cells. Also, the “plasma exposure level relative to reference compound 1” value in series [3] is listed as around 3 times. Further, the “Normalized parent drug remaining proportion (%) after 240 min of incubation” value in the series on Mouse hepatocytes is reported as 98.3%. Besides, in “in vivo”, the exposure AUC(0-t) amounted to 48000 ng·h/mL, the Cmax was found to be 11400 ng/mL and the half-life is 2.75 h. In addition, on PCSK9 (biotinylated), the Kd came out at 75.8 nM. For the same compound, at PCSK9 (biotinylated) (fold of binding strength versus reference compound 2), the “binding stronger than that of the reference compound 2” value was “more than 10 times”.

As for `O=c1cccnn1-c1ccc(N[C@H]2CC[C@H](Nc3ncc4c(n3)OCCO4)C2)nc1` [Example 5, 2-(6-{[(1S,3S)-3-(6,7-Dihydro[1,4]dioxino[3,2-d]pyrimidin-2-ylamino)cyclopentyl]amino}pyridin-3-yl)-3H,2H-1,2-pyridazin-3-one], the “LDLR up-regulation level" (% control)” value in series [2] is given as 188 % control.

Regarding `O=c1ccccn1-c1cnc(N[C@H]2CC[C@H](Nc3ncc4c(n3)OCCO4)C2)c(F)c1` [Example 6, 1-(5-Fluoro-6-{[(1S,3S)-3-(6,7-dihydro[1,4]dioxino[3,2-d]pyrimidin-2-ylamino)cyclopentyl]amino}pyridin-3-yl)-1,2-dihydropyridin-2-one], in series [2], the “LDLR up-regulation level" (% control)” value came out at 155 % control.

On to `O=c1ccccn1-c1cnc(N[C@H]2CC[C@H](Nc3ncc4c(n3)OCCO4)C2)cn1` [Example 7, 1-(5-{[(1S,3S)-3-(6,7-Dihydro[1,4]dioxino[3,2-d]pyrimidin-2-ylamino)cyclopentyl]amino}pyrazin-2-yl)-1,2-dihydropyridin-2-one], for which the “LDLR protein level result relative to reference compound 1” value in series [2] amounted to 1.16 times.

As for `O=C1c2ccccc2CN1c1cnc(N[C@H]2CC[C@H](Nc3ncc4c(n3)OCCO4)C2)cn1` [Example 8, 2-(5-{[(1S,3S)-3-(6,7-Dihydro[1,4]dioxino[3,2-d]pyrimidin-2-ylamino)cyclopentyl]amino}pyrazin-2-yl)-2,3-dihydro-1H-isoindol-1-one], the “LDLR protein level result relative to reference compound 1” value in series [2] turned out to be 1.04 times.

`O=c1ccccn1-c1ccc(N[C@H]2CC[C@H](Nc3ncc4ccccc4n3)C2)nc1` [Example 11, 1-(6-{[(1S,3S)-3-(Quinazolin-2-ylamino)cyclopentyl]amino}pyridin-3-yl)-1,2-dihydrop yridin-2-one] yielded a dissociation constant Kd at PCSK9 (biotinylated) of 180 nM.

On to `O=c1ccccn1-c1ccc(N[C@H]2CC[C@H](Nc3ncc4sccc4n3)C2)nc1` [Reference compound 2, reference compound], for which the hepatocyte CLint at 1 µM in series [1] was found to be 15.7 µL/min/1e6 cells.
